The record followed here is the NIST ThermoML archive (doi:10.1016/j.jct.2005.12.007).

Numbers after ± are expanded uncertainties.

The conditions of this data set: 298.15 K, 101.33 kPa, Liquid; for viscosity: Capillary tube (Ostwald / Ubbelohde) method; for mass density: Pycnometric method; for speed of sound: Sing-around technique in a fixed-path interferometer.

As to `CCCCNCCCC` [dibutylamine], the viscosity – broadly, the resistance of a fluid to flow – is 0.821 ± 0.008 mPa·s; the mass density (commonly the mass of a sample divided by its volume) is 757.53 ± 0.74 kg/m3; the speed of sound (as a rule, how fast a sound wave travels through the sample) was 1243.4 ± 1.4 m/s.

For the compound `CCCCN` [1-butanamine], the viscosity came to 0.486 ± 0.007 mPa·s, the mass density was found to be 733.3 ± 1 kg/m3 and the speed of sound is given as 1249.7 ± 2.2 m/s.

For the compound `CCCCN(CCCC)CCCC` [tributylamine], the viscosity was determined as 1.258 ± 0.012 mPa·s, the mass density came to 773.56 ± 0.76 kg/m3 and the speed of sound amounted to 1245.3 ± 1.4 m/s.
